Entries after “also recorded” stand apart in the source; their conditions may differ.
Columns and labels:
[1] = test system: human coagulation proteome; assay: Synthetic coagulation proteome assay (thrombin generation); format: biochemical
Procedure: This assay is carried out using an established protocol as described previously (Brummel-Ziedens 2008). Briefly, a pro-cofactor solution containing re-lipidated tissue factor (10 pM; molar ratio PCPS:TF=5000) was incubated with 4 μM PCPS in HBS (20 mM HEPES and 150 mM NaCl at pH 7.4) and 2 mM CaCl2 for 8 min at 37° C. Factor V (40 nM) and Factor VIII (1.4 nM) were then added to the mixture prior to initiation of the reaction to activate the protease zymogens in the blood coagulation cascade. The activation reaction was initiated by addition of the pro-cofactor solution to a zymogen solution containing prothrombin (2.8 μM), Factor VII (20 nM), Factor Vila (0.2 nM), FX (340 nM), Factor IX (180 nM), Factor XI (60 nM), TFPI (5 nM), antithrombin III (6.8 μM) […]
At selected time points after initiation of the reaction, 10 μL aliquots were withdrawn from the reaction mixture and quenched in 20 mM EDTA in HBS (pH 7.4) containing 0.2 mM Spectrozyme™ TH and assayed immediately for the proteolytic activity of thrombin. The hydrolysis of Spectrozyme™ TH was monitored by the change in absorbance at 405 nm using a SpectraMax™ plate reader (Molecular Devices Corp., Menlo Park, Calif., USA). Concentration of thrombin generated by the reaction was calculated from a standard curve prepared by serial dilutions of known concentrations of α-thrombin using the fibrinogen clotting assay (DiMaio 1990). Fibrinogen solution was freshly prepared by dissolving about 0.5% (w/v) fibrinogen in 50 mM Tris-HCl, 100 mM NaCl, 0.1% PEG-8000, pH 7.6 and filtering the resulting solution through a hydrophilic membrane of 0.45 μm polyvinylidene fluoride (PVDF) with low protein binding. The concentration of fibrinogen after filtration was determined by using the extinction coefficient of 15.0 for 1% fibrinogen at 280 nm. […] Thrombin-induced clotting of fibrinogen was followed at 25° C. by measuring the optical absorbance at 420 nm. The clotting time was obtained from extrapolation of the slope at the point of inflection to the zero absorbance baseline. […]

[2] = test system: FeCl3-induced venous thrombosis (vena cava); assay: FeCl3-induced venous model of thrombosis in rats (thrombus weight); format: in vivo; conditions: rat, single-bolus injection via tail vein
Procedure: Male Sprague-Dawley rats (250-310 g; Charles River Laboratories, St-Constant, QC, Canada) were acclimated for at least 3 days prior to the start of the study. Animals were housed in microisolator cages and were kept on a 12-hr light/dark cycle with constant temperature and humidity. Food and water were provided ad libitum. Various anti-thrombotic agents and peptides of this invention were dissolved in saline (0.9% sodium chloride) prior to use.
The FeCl3-induced venous model of thrombosis in rats was generated as described by Wang and Xu (Wang 2005) with some modifications (Couture 2011). Briefly, rats were anesthetized with a 2.5% isoflurane/oxygen mixture and placed on a heat source (35-37° C.). The vena cava was then exposed via a midline incision and the region between the renal and iliolumbar veins was isolated. […]
Protein content of the thrombus was also measured according to protocol by Wang (Wang 2005). […] Contents of amino acids and small peptides were measured at OD280 with digestion buffer used as a blank.
Statistical analysis was conducted using GraphPad™ Prism (GraphPad Software Inc., San Diego Calif., USA). Data were analyzed using one-way ANOVA with post-hoc Bonferroni correction for multiple comparisons. The relationship between thrombus weight and thrombus volume was determined by linear regression. […]

`CC[C@H](C)[C@H](N)C(=O)N[C@@H](CCCNC(=N)N)C(=O)N[C@@H](Cc1ccccc1)C(=O)N[C@H](C(=O)N[C@@H](CC(=O)O)C(=O)NCC(=O)N[C@@H](CCC(=O)O)C(=O)N[C@@H](Cc1c[nH]c2ccccc12)C(=O)N[C@H](C(=O)N[C@@H](Cc1c[nH]c2ccccc12)C(=O)N[C@@H](CC(=O)O)C(=O)N[C@@H](CC(=O)O)C(=O)N[C@@H](C)C(=O)N[C@H](C(=O)N[C@@H](CCCCN)C(=O)N[C@H](C(=O)N[C@@H](Cc1c[nH]c2ccccc12)C(=O)N[C@H](C(=O)N[C@@H](Cc1c[nH]c2ccccc12)C(=O)N[C@H](C(=O)N[C@@H](CCC(=O)O)C(=O)NCC(=O)N[C@@H](CC(=O)O)C(=O)N[C@@H](Cc1ccccc1)C(=O)N[C@@H](CCC(=O)O)C(=O)N[C@@H](CCC(=O)O)C(=O)N[C@H](C(=O)N1CCC[C@H]1C(=O)N[C@@H](CCC(=O)O)C(=O)N[C@@H](CCC(=O)O)C(=O)N[C@@H](Cc1ccc(O)cc1)C(=O)N[C@@H](CC(C)C)C(=O)N[C@@H](CCC(N)=O)C(=O)O)[C@@H](C)CC)[C@@H](C)O)[C@@H](C)O)[C@@H](C)O)[C@@H](C)O)[C@@H](C)O)[C@@H](C)O` [MH2-wZIP4] was tested, and the “delay of thrombin burst / onset of thrombin generation” value ([1]; 37° C.) was “very little delay in the onset of thrombin generation”, the “delay of onset of thrombin generation with increase of bulk temperature” value ([1]; 42° C. versus 37° C.) was “delaying effect is increased somewhat” and the “reduction of thrombus weight, venous model” value [2] was “particularly efficacious in reducing the weight of local thrombus formation; also recorded: more effective than other anti-thrombotic agents (heparin, argatroban and bivalirudin)”.

Reference: patent publication US10155802B2, “Locally-active anticoagulants and anti-inflammatory agents” (priority 2011, dated 2018)
